Results: publication doi:10.1101/2024.09.04.610228v1 (bioRxiv, 2024)
Peptide text beside a SMILES is read from it.

Columns and labels:
caspase 3/7 = test: Caspase 3/7 activity; assay type: cell-based, Human; details: senescent A375 cells; 20 μM, 24 h
[1] = tested on: FOXO4 foci in senescent A375 cells; test: Immunofluorescence of FOXO4 foci in nuclei of senescent A375 cells; assay type: cell-based, Human; details: doxorubicin-induced senescent A375 cells; 30 μM CPP-CAND, 24 h; vs DMSO mock
A375 cells = test: MTS cell viability assay, dividing vs cisplatin; assay type: cell-based, Human; details: dividing vs CDDP (4 µM)-induced senescent A375 cells
FOXO4 FHD = FOXO4 FHD (Homo sapiens, UniProt P98177); test: FPA competition assay; assay type: binding; details: FPA competition analysis
FOXO4 FHD, sequence (P98177 95-195): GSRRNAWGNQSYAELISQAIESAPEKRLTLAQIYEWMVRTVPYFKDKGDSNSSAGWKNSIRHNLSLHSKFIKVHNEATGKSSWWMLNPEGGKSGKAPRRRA

| Structure (SMILES) | Caspase 3/7 activity (percentage of green fluorescent cells), senescent cells (caspase 3/7) | Reduction in number of FOXO4 foci in nuclei [1] | SI75 (selectivity index from IC75 values) (A375 cells) | Enhancement of inhibitory ability compared to p53 TAD PEP (FOXO4 FHD) |
| --- | --- | --- | --- | --- |
| CC[C@H](C)[C@H](NC(=O)[C@H](C)NC(=O)[C@H](C)NC(=O)[C@@H]1CCCN1C(=O)[C@H](CO)NC(=O)[C@H](CC(C)C)NC(=O)[C@H](CCSC)NC(=O)[C@H](CC(C)C)NC(=O)[C@H](C)NC(=O)[C@@H]1CCCN1C(=O)[C@@H]1CCCN1C(=O)[C@H](CCCNC(=N)N)NC(=O)[C@H](CCCNC(=N)N)NC(=O)[C@H](CCCNC(=N)N)NC(=O)[C@H](CCC(N)=O)NC(=O)[C@H](CCCNC(=N)N)NC(=O)[C@H](CCCNC(=N)N)NC(=O)[C@H](CCCCN)NC(=O)[C@H](CCCCN)NC(=O)[C@H](CCCNC(=N)N)NC(=O)CN)C(=O)N[C@@H](C)C(=O)N[C@@H](CCC(N)=O)C(=O)N[C@@H](Cc1c[nH]c2ccccc12)C(=O)N[C@@H](Cc1ccccc1)C(=O)N[C@H](C(=O)N[C@@H](C)C(=O)N[C@@H](C)C(=O)O)[C@@H](C)O [CPP-CAND] (H-GRKKRRQRRRPPALMLSPAAIAQWFTAA-OH; N-terminus and C-terminus assumed) | 44% | approximately 7.1 fold | approximately 2.4 |  |
| CC[C@H](C)[C@H](NC(=O)[C@H](C)NC(=O)[C@H](C)NC(=O)[C@@H]1CCCN1C(=O)[C@H](CO)NC(=O)[C@H](CC(C)C)NC(=O)[C@H](CCSC)NC(=O)[C@H](CC(C)C)NC(=O)[C@H](C)N)C(=O)N[C@@H](C)C(=O)N[C@@H](CCC(N)=O)C(=O)N[C@@H](Cc1c[nH]c2ccccc12)C(=O)N[C@@H](Cc1ccccc1)C(=O)N[C@H](C(=O)N[C@@H](C)C(=O)N[C@@H](C)C(=O)O)[C@@H](C)O [CAND] (H-ALMLSPAAIAQWFTAA-OH; N-terminus and C-terminus assumed) |  |  |  | approximately three-fold |
